Consider one compound from PMC6881810, “Trichoderma reesei Dehydrogenase, a Pyrroloquinoline Quinone-Dependent Member of Auxiliary Activity Family 12 of the Carbohydrate-Active Enzymes Database: Functional and Structural Characterization” (Applied and Environmental Microbiology, 2019).

This assay deals with T1, TrAA12 (Trichoderma reesei, UniProt G0RPY6).
T1 construct: gene AA12
Nature of the assay: cytochrome c reduction at […] nm, Michaelis-Menten nonlinear fit. The class given is biochemical. The settings on record: 50 uM cytochrome c, 4 uM PQQ, 1 mM CaCl2, 50 mM sodium acetate pH 5.5, 40 C; full cofactor occupancy assumed.

T1 sequence (G0RPY6 24-430): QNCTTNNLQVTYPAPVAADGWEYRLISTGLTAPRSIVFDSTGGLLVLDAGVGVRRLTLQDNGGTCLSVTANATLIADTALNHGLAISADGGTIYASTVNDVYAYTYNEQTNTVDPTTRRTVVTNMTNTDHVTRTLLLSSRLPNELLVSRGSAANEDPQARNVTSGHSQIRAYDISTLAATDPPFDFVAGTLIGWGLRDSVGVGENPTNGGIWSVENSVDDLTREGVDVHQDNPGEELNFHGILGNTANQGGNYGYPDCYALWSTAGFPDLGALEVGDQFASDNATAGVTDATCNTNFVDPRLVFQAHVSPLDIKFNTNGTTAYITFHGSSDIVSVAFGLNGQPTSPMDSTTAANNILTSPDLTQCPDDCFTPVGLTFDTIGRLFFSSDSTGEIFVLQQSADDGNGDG

Broadly, the Km is the substrate concentration at which the rate is half of its maximum. Consider `C[C@@H]1OC(O)[C@@H](O)[C@H](O)[C@@H]1O` (stereo partly drawn) [L-fucose], for which the Km was determined as 99.9 ± 9.7 mM.
